62 compounds from US20070213359A1 (ACADIA Pharmaceuticals Inc., priority 2005, published 2007) can be followed below.

This assay deals with Ghrelin receptor (Homo sapiens, UniProt Q92847). The experiment in a line: Receptor Selection and Amplification Technology (R-SAT) assay. It is filed as cell-based. Also on record: expressed in transfected cells; host or cells: NIH3T3. Particulars: for Emax: read-out: RSAT Eff(%).
[1] abbreviates: […], '—' not defined (nd used separately), read-out: RSAT pIC50 (converted).

Structures are written as SMILES. Read-outs that look alike come from different tables or passages of the source.

Sequence of Ghrelin receptor (Q92847 whole entry): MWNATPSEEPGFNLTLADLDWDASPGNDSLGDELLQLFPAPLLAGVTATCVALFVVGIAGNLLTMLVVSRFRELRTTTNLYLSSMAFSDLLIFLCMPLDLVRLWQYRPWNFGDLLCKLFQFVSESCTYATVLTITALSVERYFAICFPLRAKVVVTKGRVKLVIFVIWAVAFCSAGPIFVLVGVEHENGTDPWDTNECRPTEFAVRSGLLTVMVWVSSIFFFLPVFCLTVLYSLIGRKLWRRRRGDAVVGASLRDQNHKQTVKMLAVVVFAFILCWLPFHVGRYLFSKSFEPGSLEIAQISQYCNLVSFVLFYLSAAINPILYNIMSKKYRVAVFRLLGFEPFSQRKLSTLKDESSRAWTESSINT

Turning to `COc1cccc2c(C(=O)NCc3cccc(Cl)c3)cn(CCCN3C4CCC3CC(CCc3ccc(Cl)cc3)C4)c12` (stereo not shown), the Emax amounted to 127%. Also, the IC50 under setting [1] was 0.794 nM. `COc1cccc2c(C(=O)C3CC3)cn(CCCN3CCCN(CCc4ccccc4)CC3)c12`: the Emax came out at 100%. Besides, the IC50 under setting [1] is 1.26 nM. Take `COc1cccc2c(C(=O)Cc3ccccc3)cn(CCCN3CCN(Cc4ccc(Cl)cc4Cl)CC3)c12`: the Emax was found to be 76%. In addition, the IC50 under setting [1] is 2 nM.

As to `COc1cccc2c(C(=O)C3CC3)cn(CCCN3CCN(CCOc4ccccc4)CC3)c12`, the Emax turned out to be 94%. In addition, the IC50 under setting [1] is 7.94 nM.

As to `COc1cccc2c(C(=O)Cc3ccccc3)cn(CCCN3CCN(c4ncc(C(F)(F)F)cc4Cl)CC3)c12`, the Emax was determined as 95%. The IC50 under setting [1] was 7.94 nM. As to `COc1cccc2c(C(=O)NCc3cccc(C)c3)cn(CCCN3C4CCC3CC(CCc3ccccc3)C4)c12` (stereo not shown), the Emax is 89%. Also, the IC50 under setting [1] was 10 nM.

Take `COc1cccc2c(C(=O)NCC(C)C)cn(CCCN3CCC4(CC3)CC(=O)c3ccccc3O4)c12`: the Emax came out at 115%. The IC50 under setting [1] is 12.6 nM. Taken in the same sequence, the figures for `COc1cccc2c(C(=O)NCC(C)C)cn(CCCN3CCCN(Cc4ccccc4Cl)CC3)c12` were 100% and 15.8 nM. Consider `COc1cccc2c(C(=O)NCC(C)C)cn(CCCN3C4CCC3CC(CCc3ccccc3)C4)c12` (stereo not shown), for which the Emax was 86%. Further, under setting [1], the IC50 is 15.8 nM.

With `COc1cccc2c(C(=O)c3ccccc3)cn(CCCN3C4CCC3CC(CCc3ccc(Cl)cc3)C4)c12` (stereo not shown), the Emax came to 94%. The IC50 under setting [1] was 15.8 nM.

On to `COc1cccc2c(C(=O)C3CC3)cn(CCCNCCOc3ccccc3)c12`, for which the Emax worked out at 83%. Further, under setting [1], the IC50 was 15.8 nM.

`COc1cccc2c(C(=O)NCc3cccc(C)c3)cn(CCCN3CCC(c4nc(-c5ccncc5)no4)CC3)c12`: the Emax amounted to 121%. Further, the IC50 under setting [1] was 15.8 nM.

As for `COc1cccc2c(C(=O)NCc3cccc(Cl)c3)cn(CCCN3CCC(c4nc(-c5cccnc5)no4)CC3)c12`, the Emax was found to be 103%. Besides, the IC50 under setting [1] is 20 nM. `COc1cccc2c(C(=O)NCc3cccc(Cl)c3)cn(CCCN3CCCN(Cc4ccccc4Cl)CC3)c12`: the Emax was determined as 107%. Under setting [1], the IC50 is 20 nM. For `COc1cccc2c(C(=O)C3CC3)cn(CCCN3CCC(c4nc(-c5ccncc5)no4)CC3)c12`, the Emax came to 87%. Besides, the IC50 under setting [1] is 20 nM.

On to `CC(=O)c1cn(CCCN2CCC(N3C(=O)Cc4ccccc43)CC2)c2c(C#N)cccc12`, for which the “RSAT Eff(%)” value came to 133%. The IC50 under setting [1] is 20 nM.

Consider `COc1cccc2c(C(=O)Cc3ccccc3)cn(CCCN3CCC(c4nc(-c5cccnc5)no4)CC3)c12`, for which the Emax amounted to 88%. Also, the IC50 (RSAT pIC50) was 20 nM. With `COc1cccc2c(C(=O)C3CC3)cn(CCCNC3Cc4ccccc4C3)c12`, the Emax turned out to be 97%. Further, the IC50 under setting [1] is 25.1 nM. Turning to `COc1cccc2c(C(=O)NCc3cccc(C)c3)cn(CCCN3C4CCC3CC(CCc3ccc(Cl)cc3)C4)c12` (stereo not shown), the Emax is 77%. The IC50 under setting [1] was 25.1 nM. Take `COc1cccc2c(C(=O)Cc3ccccc3)cn(CCCN3CCC(c4nc(-c5ccncc5)no4)CC3)c12`: the Emax turned out to be 137%. Also, under setting [1], the IC50 was 25.1 nM. `COc1cccc2c(C(=O)c3ccccc3)cn(CCCN3CCC(c4nc(-c5ccncc5)no4)CC3)c12`: the Emax is 98%. Also, the IC50 under setting [1] is 25.1 nM. Take `COc1cccc2c(C(=O)NCC(C)C)cn(CCCN3CCN(Cc4ccc(Cl)cc4Cl)CC3)c12`: the Emax stood at 105%. In addition, the IC50 under setting [1] is 25.1 nM. As for `COc1cccc2c(C(=O)NCC(C)C)cn(CCCNC3Cc4ccccc4C3)c12`, the Emax came out at 102%. Besides, the IC50 under setting [1] is 31.6 nM. With `COc1cccc2c(C(=O)NCC(C)C)cn(CCCN3CCN(c4ncc(C(F)(F)F)cc4Cl)CC3)c12`, the Emax came to 100%. Also, the IC50 under setting [1] is 31.6 nM.

`COc1cccc2c(C(=O)NCc3cccc(Cl)c3)cn(CCCN3CCC(c4nc(-c5ccncc5)no4)CC3)c12`: the Emax amounted to 105%. Besides, the IC50 under setting [1] is 31.6 nM. Turning to `COc1cccc2c(C(=O)NCc3cccc(C)c3)cn(CCCN3CCN(c4ncc(C(F)(F)F)cc4Cl)CC3)c12`, the Emax stood at 80%. The IC50 under setting [1] is 39.8 nM. With `COc1cccc2c(C(=O)C3CC3)cn(CCCN3CCC(c4nc(-c5cccnc5)no4)CC3)c12`, the Emax was determined as 96%. Further, under setting [1], the IC50 is 39.8 nM. Taken in the same sequence, the figures for `COc1cccc2c(C(=O)c3ccccc3)cn(CCCN3CCC(c4nc(-c5cccnc5)no4)CC3)c12` were 80% and 39.8 nM. Regarding `COc1cccc2c(C(=O)C3CC3)cn(CCCN3CCC(N4C(=O)Cc5ccccc54)CC3)c12`, the “RSAT Eff(%)” value was 110%. The IC50 under setting [1] is 39.8 nM. On to `COc1cccc2c(C(=O)NCc3cccc(Cl)c3)cn(CCCN3CCN(c4ncc(C(F)(F)F)cc4Cl)CC3)c12`, for which the Emax came out at 107%. Also, the IC50 under setting [1] was 39.8 nM. With `CC(=O)c1cn(CCCN2CCC(c3nc(-c4cccnc4)no3)CC2)c2c(C#N)cccc12`, the Emax amounted to 77%. Also, the IC50 under setting [1] was 50.1 nM. In the case of `COc1cccc2c(C(=O)Cc3ccccc3)cn(CCCNCCOc3ccccc3)c12`, the Emax stood at 92%. Further, the IC50 under setting [1] is 50.1 nM. For `CC(=O)c1cn(CCCNCCOc2ccccc2)c2c(Br)cccc12`, the Emax came to 132%. In addition, the IC50 under setting [1] is 50.1 nM. Taken in the same sequence, the figures for `COc1cccc2c(C(=O)Cc3ccccc3)cn(CCCNC3Cc4ccccc4C3)c12` were 103% and 50.1 nM. For the compound `COc1cccc2c(C(=O)NCc3cccc(Cl)c3)cn(CCCN3CCC4(CC3)CC(=O)c3ccccc3O4)c12`, the Emax was determined as 7.8%. Besides, the IC50 under setting [1] was 63.1 nM.

Take `COc1cccc2c(C(=O)NCC(C)C)cn(CCCN3CCC(c4nc(-c5cccnc5)no4)CC3)c12`: the Emax is 93%. Further, the IC50 under setting [1] was 63.1 nM. Regarding `COc1cccc2c(C(=O)NCC(C)C)cn(CCCN3C4CCC3CC(CCc3ccc(Cl)cc3)C4)c12` (stereo not shown), the Emax is 85%. Under setting [1], the IC50 was 63.1 nM.

Turning to `COc1cccc2c(C(=O)c3ccccc3)cn(CCCN3CCCC(Cc4ccccc4Cl)C3)c12` (stereo not shown), the Emax is 82%. The IC50 under setting [1] was 63.1 nM. As for `COc1cccc2c(C(=O)C3CC3)cn(CCCN3C4CCC3CC(Oc3ccc(F)cc3)C4)c12` (stereo not shown), the Emax is 131%. In addition, the IC50 under setting [1] is 63.1 nM. Regarding `COc1cccc2c(C(=O)Cc3ccccc3)cn(CCCN3CCC4(CC3)CC(=O)c3ccccc3O4)c12`, the Emax worked out at 98%. The IC50 under setting [1] was 79.4 nM.

As to `COc1cccc2c(C(=O)NCC(C)C)cn(CCCN3CCC(C(=O)c4ccccc4)CC3)c12`, the Emax came out at 114%. Besides, under setting [1], the IC50 was 79.4 nM. For the compound `CC(=O)c1cn(CCCN2CCC(N3C(=O)Cc4ccccc43)CC2)c2c(Br)cccc12`, the “RSAT Eff(%)” value is reported as 60%. Further, the IC50 under setting [1] is 100 nM. For `COc1cccc2c(C(=O)NCc3cccc(C)c3)cn(CCCN3CCC(C(=O)c4ccccc4)CC3)c12`, the Emax was 126%. Further, the IC50 under setting [1] was 100 nM. `CCc1cccc2c(C(C)=O)cn(CCCN3CCC(N4C(=O)Cc5ccccc54)CC3)c12`: the “RSAT Eff(%)” value stood at 147%. Besides, under setting [1], the IC50 was 100 nM.

Take `CC(=O)c1cn(CCCN2CCCN(CCc3ccccc3)CC2)c2c(C)cccc12`: the Emax was 102%. For the same compound, the IC50 under setting [1] is 100 nM. Taken in the same sequence, the figures for `CC(C)CC(=O)c1cn(CCCN2CCC(c3nc4c(s3)C=CCC4)CC2)c2ccccc12` were 108% and 126 nM. On to `COc1cccc2c(C(=O)NCC(C)C)cn(CCCN3CCN(CCOc4ccccc4)CC3)c12`, for which the Emax turned out to be 118%. The IC50 under setting [1] was 126 nM. `CCc1cccc2c(C(C)=O)cn(CCCN3CCC4(CC3)CC(=O)c3ccccc3O4)c12`: the Emax was 85%. The IC50 under setting [1] was 126 nM.

Consider `COc1cccc2c(C(=O)C3CC3)cn(CCCN3CCCC(Oc4ccc(Cl)cc4)C3)c12` (stereo not shown), for which the Emax stood at 37%. The IC50 under setting [1] was 126 nM. `COc1cccc2c(C(=O)NCC(C)C)cn(CCCN3C4CCC3CC(CC(=O)c3ccc(Cl)cc3)C4)c12` (stereo not shown): the Emax worked out at 128%. Besides, the IC50 under setting [1] was 126 nM. As for `COc1cccc2c(C(=O)NCc3cccc(Cl)c3)cn(CCCN3CCC(Oc4ccccc4Cl)CC3)c12`, the Emax turned out to be 125%. The IC50 under setting [1] was 126 nM. In the case of `COc1ccccc1C1CCN(CCCn2cc(C(=O)NCc3cccc(C)c3)c3cccc(OC)c32)CC1`, the Emax turned out to be 127%. The IC50 under setting [1] is 126 nM. `COc1cccc2c(C(=O)NCc3cccc(C)c3)cn(CCCN3CCC4(CC3)CC(=O)c3ccccc3O4)c12`: the Emax came out at 63%. The IC50 under setting [1] was 158 nM. For the compound `CC(=O)c1cn(CCCNC2Cc3ccccc3C2)c2c(C)cccc12`, the Emax amounted to 70%. For the same compound, the IC50 under setting [1] is 158 nM. `COc1cccc2c(C(=O)NCC(C)C)cn(CCCNCCOc3ccccc3)c12`: the Emax was 118%. Besides, the IC50 under setting [1] was 158 nM. For the compound `COc1cccc2c(C(=O)C3CC3)cn(CCCN3C4CCC3CC(Oc3ccccc3Cl)C4)c12` (stereo not shown), the Emax worked out at 130%. Besides, the IC50 under setting [1] is 158 nM. As to `COc1cccc2c(C(C)=O)cn(CCCN3CCC(C#N)(c4ccccc4)CC3)c12`, the Emax amounted to 101%. Where the note is “RSAT pIC50”, this compound showed an IC50 of 200 nM. `COc1cccc2c(C(=O)NCc3cccc(C)c3)cn(CCCN3CCC(N4C(=O)Cc5ccccc54)CC3)c12`: the “RSAT Eff(%)” value was 43%. For the same compound, the IC50 under setting [1] was 2000 nM. In the case of `CC(=O)c1cn(CCCN2CCC(N3C(=O)Cc4ccccc43)CC2)c2c(C)cccc12`, the “RSAT Eff(%)” value came out at 69%. Further, the IC50 under setting [1] was 12600 nM. In the case of `CC(=O)c1cn(CCCN2CCC(N3C(=O)Cc4ccccc43)CC2)c2c(Cl)cccc12`, the “RSAT Eff(%)” value turned out to be 28%. Take `CC(=O)c1c(C)n(CCCN2CCC(N3C(=O)Cc4ccccc43)CC2)c2c(Br)cccc12`: the “RSAT Eff(%)” value is recorded as 12%. Turning to `COc1cccc2c(C#N)cn(CCCN3CCC(N4C(=O)Cc5ccccc54)CC3)c12`, the “RSAT Eff(%)” value was determined as 33%.
